Assay results published in patent publication US4309432A, “Compositions for treating glaucoma containing a carbostyril” (priority 1979, dated 1982).
Where “and” joins values, the source holds several entries; their conditions need not be identical. Equal entries are not always repeated. Structures can show the parent of a compound that is named as a salt.

Assays:
[1] = tested on: intraocular pressure; test: Efficacy Test 3: intraocular pressure in normal rabbits (Alcon pneumatic tonometer); format: in vivo, rabbit (male New Zealand Albino); details: for Intraocular pressure 30 minutes after instillation, average / Intraocular pressure 1 hour after instillation, average / Intraocular pressure 30 minutes after instillation / Intraocular pressure 1 hour after instillation: 1% (W/V), 100 μl
Experimental: Male rabbits of New Zealand Albino strain, weighing 1.8 to 2.5 kg, are used as experimental animals. Intraocular pressure is measured with an Alcon pneumatic tonometer without local anesthesia, while holding the animal in a cylindrical rabbit holder.
The test compound is dissolved in a physiological solution of NaCl to a concentration of 1% (W/V), and the resulting solution is adjusted to a pH of 6.5 to 7.0 with a 0.01 N aqueous NaOH solution. The solution is instilled to one of the eyes of the animal in an accurate amount of 100 μl with a microsyringe after measuring the intraocular pressure of the eye. The eyelid is held closed for 1 minute after the instillation to prevent the escape of the solution.
The efficacy of the test compound is determined by measuring the intraocular pressure 30 minutes and 1 hour after the instillation and comparing the measurements with the pressure measured before the instillation. A 100 μl quantity of physiological saline containing no test compound is similarly tested on a control group.

[2] = Acute Toxicity Test, intravenous, mice; format: in vivo; details: mouse, in vivo
Experimental: (§1) Active compounds useful for the glaucoma treating compositions of this invention are intravenously administered to mice to test the compounds for acute toxicity.
(§2) Other active compounds of this invention are also tested for acute toxicity in the same manner as above, i.e., by intravenously administering them to mice. The LD50 values determined are all not lower than about 40 mg/kg.

[3] = Acute toxicity, oral administration, male rats; details: rat, in vivo
Description: *Determined by the oral administration of Compound C to male rats.

[4] = tested on: mice; test: Acute Toxicity Test, intravenous, mice; format: in vivo
Experimental: as §1, §2

Structure (SMILES) | Intraocular pressure 30 minutes after instillation, average ([1]; average of animals) | Intraocular pressure 1 hour after instillation, average ([1]; average of animals) | other results
CCN1C(=O)CCc2c(OCC(O)CNC3CCCCC3)cccc21 (centres unmarked) [Compound H, 1-Ethyl-5-(2-hydroxy-3-cyclohexylamino)propoxy-3,4-dihydrocarbostyril hydrochloride] | 15.5 mm Hg | 15.5 mm Hg | 
O=C1CCc2c(cccc2OCC(O)CNCc2ccccc2)N1 (centres unmarked) [Compound F, 5-(2-Hydroxy-3-benzylamino)propoxy-3,4-dihydrocarbostyril hydrochloride] | 18.5 mm Hg | 18.5 mm Hg | 
CCNCC(O)COc1cccc2c1CCC(=O)N2 (centres unmarked) [Compound E, 5-(2-Hydroxy-3-ethylamino)propoxy-3,4-dihydrocarbostyril maleate] | 18.0 mm Hg | 17.0 mm Hg | 
O=C1CCc2c(cccc2OCC(O)CNC2CCCCC2)N1 (centres unmarked) [Compound G, 5-(2-Hydroxy-3-cyclohexylamino)propoxy-3,4-dihydrocarbostyril hydrochloride] | 16.5 mm Hg | 16.5 mm Hg | 
COc1ccc(CCNCC(O)COc2ccc(NC(N)=O)c3c2CCC(=O)N3)cc1OC (stereo not drawn) [Compound J, 8-Ureido-5-[2-hydroxy-3-(β-3,4-dimethoxyphenethylamino)]propoxy-3,4-dihydrocarbostyril hydrochloride] | 17.5 mm Hg | 17.0 mm Hg | LD50 [2]: 143 mg/kg
C#CCOc1ccc(OCC(O)CNCCc2ccc(OC)c(OC)c2)c2c1NC(=O)CC2.O=C(O)C(=O)O (stereo not drawn) [Compound K, 8-Propynyloxy-5-[2-hydroxy-3-(β-3,4-dimethoxyphenethylamino)]propoxy-3,4-dihydrocarbostyril oxalate] | 18.5 mm Hg | 18.0 mm Hg | Intraocular pressure before instillation, average ([1]; average of animals, baseline): 19.5 mm Hg; Intraocular pressure 30 minutes after instillation ([1]; individual animal): 19 mm Hg and 18 mm Hg; Intraocular pressure 1 hour after instillation ([1]; individual animal): 18 mm Hg; Intraocular pressure before instillation ([1]; individual animal, baseline): 20 mm Hg and 19 mm Hg
CC(C)(C)NCC(O)COc1cccc2[nH]c(=O)ccc12 (centres unmarked) [Compound B, 5-(2-Hydroxy-3-tert-butylamino)propoxycarbostyril hydrochloride] | 17.0 mm Hg | 16.5 mm Hg | LD50 [2]: 44.6 mg/kg
CC(C)NCC(O)COc1cccc2c1NC(=O)CC2 (centres unmarked) [Compound I, 8-(2-Hydroxy-3-isopropylamino)propoxy-3,4-dihydrocarbostyril hydrochloride] | 16.5 mm Hg | 16.5 mm Hg | LD50 [2]: 81.6 mg/kg
C=CCOc1ccc(OCC(O)CNC(C)(C)C)c2c1NC(=O)CC2 (centres unmarked) [Compound M, 8-Allyloxy-5-(2-hydroxy-3-tert-butylamino)propoxy-3,4-dihydrocarbostyril hydrochloride] | 19.0 mm Hg | 18.0 mm Hg | Intraocular pressure 30 minutes after instillation ([1]; individual animal): 19 mm Hg; Intraocular pressure 1 hour after instillation ([1]; individual animal): 18 mm Hg
C=CCN1C(=O)CCc2c(OCC(O)CNC(C)(C)C)cccc21 (centres unmarked) [Compound N, 1-Allyl-5-(2-hydroxy-3-tert-butylamino)propoxy-3,4-dihydrocarbostyril hydrochloride] | 17.5 mm Hg | 16.5 mm Hg | 
COc1ccc(CCNCC(O)COc2ccc(OCC(C)=O)c3c2CCC(=O)N3)cc1OC (stereo not drawn) [Compound C, 8-Methylcarbonylmethoxy-5-[2-hydroxy-3-(β-3,4-dimethoxyphenethylamino)]propoxy-3,4-dihydrocarbostyril oxalate] | 17.0 mm Hg | 17.0 mm Hg | LD50 [3]: 1260 mg/kg
COc1ccc(CCNCC(O)COc2ccc(NC(C)=O)c3c2CCC(=O)N3)cc1OC (stereo not drawn) [Compound L, 8-Acetylamino-5-[2-hydroxy-3-(β-3,4-dimethoxyphenethylamino)]propoxy-3,4-dihydrocarbostyril hydrochloride] | 18.0 mm Hg | 17.5 mm Hg | Intraocular pressure 30 minutes after instillation ([1]; individual animal): 18 mm Hg
CC(C)(C)NCC(O)COc1cccc2c1CCC(=O)N2 (centres unmarked) [Compound A, 5-(2-Hydroxy-3-tert-butylamino)propoxy-3,4-dihydrocarbostyril hydrochloride] | 17.2 mm Hg | 17.4 mm Hg | LD50 [4]: 54.4 mg/kg
COc1ccc(CCNCC(O)COc2ccc(O)c3c2CCC(=O)N3)cc1OC (stereo not drawn) [Compound D, 8-Hydroxy-5-[2-hydroxy-3-(β-3,4-dimethoxyphenethylamino)]propoxy-3,4-dihydrocarbostyril hydrochloride] | 17.0 mm Hg | 14.0 mm Hg | Intraocular pressure 30 minutes after instillation ([1]; individual animal): 17 mm Hg
